Experimental data from patent US8465985B2, “Fluorescent probe” (The University of Tokyo, priority 2007, dated 2013).

Assay: Spectral change of Compound 5 in association with pH change (absorption and fluorescence spectra)
Assay type: physicochemical
Method: For all the samples, measurements were performed in a 1:1 mixed solvent of 100 mM sodium phosphate buffered solution and acetonitrile (containing 0.1% or less of DMSO as an auxiliary solvent).
In the case of Compound 5, for example, the tricarbocyanine fluorophore is a pH-sensitive FRET receptor, the dicarbocyanine fluorophore is an FRET donor, and the compound has a property that when the nitrogen atom binding to the methine chain of the tricarbocyanine fluorophore is protonated, the peak in the excitation spectrum shifts from around 660 nm to the longer wavelength side in connection with decrease of electron donating ability. […] Namely, by dissolving Compound 5 in a test sample, performing excitation with a light of 640 nm, and measuring ratio of fluorescence intensities at 660 nm and 750 nm upon excitation, it becomes possible to detect pH by the ratio method. Compound 5 is especially useful as a pH fluorescent probe for measuring pH in live cells or live tissues, in particular, in deep part tissues, under a physiological condition.
In a 1:1 mixed solution of 100 mmol/L phosphate buffer (pH 1.2, 2.1, 3.3, 3.9, 5.0, 6.0, 6.8) and acetonitrile (containing 0.1% or less of DMSO as an auxiliary solvent), absorption spectra and fluorescence spectra (excitation wavelength: 640 nm) of Compound 5 were measured. It can be understood that with elevation of pH, the absorbance around 650 nm increased, and the absorption spectrum changed. Moreover, it can also be understood that in the fluorescence spectrum, with elevation of pH, the fluorescence intensity decreased around 660 nm, and increased around 750 nm. Therefore, pH change can be accurately measured by using the ratio method based on one-wavelength excitation/ two-wavelength fluorescence measurement. […] The fluorescence intensities at 660 nm and 750 nm linearly change from pH 4 to 6, and accordingly, pH of this range can be measured by using Compound 5.

[1] = excitation 640 nm, 1:1 phosphate buffer (pH 1.2-6.8) and acetonitrile

- change of absorbance around 650 nm with elevation of pH (1:1 100 mmol/L phosphate buffer (pH 1.2-6.8) and acetonitrile): increased
- change of fluorescence intensity around 660 nm with elevation of pH [1]: decreased
- change of fluorescence intensity around 750 nm with elevation of pH [1]: increased
- fluorescence wavelength of the tricarbocyanine fluorophore (FRET receptor) (excitation light of 640 nm, nitrogen atom not protonated): around 750 nm
- fluorescence wavelength peak of the dicarbocyanine fluorophore (FRET donor) (excitation light of 640 nm, nitrogen atom protonated): around 660 nm
SMILES: CN1/C(=C/C=C2\CCCC(/C=C/C3=[N+](C)c4ccccc4C3(C)C)=C2NCCCCCC(=O)N[C@H]2CC[C@H](NC(=O)CC[N+]3=C(/C=C/C=C/C=C4/N(CCC(=O)O)c5ccccc5C4(C)C)C(C)(C)c4ccccc43)CC2)C(C)(C)c2ccccc21 [Compound 5]
